Test results taken from patent US20240101510A1, “APYRASE INHIBITORS” (Texas Crop Science, priority 2022, published 2024).

Legend:
[1] = test system: Botrytis cinerea on tomatoes; test: Greenhouse crop test in combination with commercial fungicide; assay type: in vivo; conditions: test compound at 20 ppm
Procedure: (§1) Method 3: Greenhouse Crop Tests
(§2) In this method, exemplary compounds were evaluated for their ability to control Zymoseptoria tritici on wheat, Botrytis cinerea on tomatoes, Asian Soya Rust (Phakopsora pachyrhizi) on soybean, and Brown Rust (Puccinia recondita) on wheat, in a controlled greenhouse environment in combination with one of four fungicides, Amistar, Imtrex, Proline or Balaya. In these studies, soybean cultivar Siverka, tomato (Money maker) and wheat plants (JB Diego) were used. Seeds were sown in 9 cm diameter pots to a depth of 1 to 2 cm using Petersfield potting compost (75% medium grade peat, 12% screened sterilized loam, 3% medium grade vermiculite, 10% grit (5 mm screened, lime free), 1.5 kg PG mix per m3, lime to pH5.5-6.0 and wetting agent (Vitax Ultrawet 200 ml per m3) and germinated/grown at 23° C. under a 16 h day/8 h night light regime. Plants were treated two to three weeks after sowing when they were at the BBCH 11 growth stage (first pair of true leaves (unifoliate) unfolded. A track sprayer was used to treat the plants with the mixture of commercial fungicide and test compound using a water volume of 200 L/ha. Plants were inoculated with the appropriate fungi (pathogen) 24 hours after treatment. Fungal pathogens used were Botrytis cinerea (Grey mold on tomato plants), Zymoseptoria tritici (Septoria leaf blotch on wheat plants), Puccinia triticina (Brown rust on wheat plants) and Phakopsora pachyrhyzi (Asian soy rust on soybean plants). Four replicates were used for each combination of fungicide, pathogen and test compound. Each plant was evaluated once the disease symptoms were fully expressed between seven to twenty days (depending on the pathogen) for % control of the disease. Appropriate controls were used for all experiments, including an ‘inoculation check’ wherein plants were inoculated with their specific pathogen to assess disease levels. Also, each commercial fungicide was tested on its own as a part of each treatment, this being benchmark against which the experimental compounds were evaluated. […] That is, the present compounds, although not fungicidal by themselves, enhance the activity of fungicides.
(§3) In these studies the fungicide was applied at the following rates

[2] = test system: Brown Rust (Puccinia recondita) on wheat; test: as above; assay type: in vivo; conditions: Imtrex 0.35 L/ha; test compound at 20 ppm
Procedure: as §1, §2, §3

[3] = test system: Zymoseptoria tritici on wheat; test: as above; assay type: in vivo; conditions: test compound at 20 ppm
Procedure: as §1, §2, §3

[4] = test system: Asian Soya Rust (Phakopsora pachyrhizi) on soybean; test: as above; assay type: in vivo; conditions: test compound at 20 ppm
Procedure: as §1, §2, §3

apyrase = test: In vitro apyrase assay (screen for apyrase inhibitors, phosphate release read at 630 nm); assay type: biochemical; conditions: inhibitor conc at 1 mM; 1 hr at room temperature; rounded average of two assay results
Procedure: Method 1: In Vitro Apyrase Assay: Apyrase inhibitors useful as enhancers of pesticidal activity are assessed using an in vitro assay. The method of Windsor, Bio Techniques 33:1024-1030 (November 2002) was used as follows: Screen for Apyrase Inhibitors - 96 well plates were used for the assay: (Greiner bio-one: REF-655901-96 well, PS, F-bottom, Clear, Non-binding) Buffers: • Reaction Buffer: 60 mM Hepes; 3 mM MgCl2, 3 mM CaCl2 and 3 mM ATP (pH 6.5) • Development Buffer A: 2% aqueous ammonium molybdate • Development Buffer B: 11% ascorbic acid in 37.5% TCA in water • Stop buffer C: 2% trisodium citrate in 2% acetic acid solution in water • Add 100 μl of reaction buffer to each well. • Add […] (control) or inhibitor/compound or compounds such as […] or orthovanadate to each well. […] A blank cell indicates either <10% observed inhibition or a large difference between repetitions. In certain examples, the lack of observed inhibition is due to a lack of solubility of the compound under assay conditions, rather than a lack of apyrase inhibitory activity. Roux compound 15 inhibited apyrase in this assay at about 60%.

[5] = test system: Zymoseptoria tritici with a reduced susceptibility to SDHI fungicides; test: In vitro assessment of combination activity with fungicides on agar; assay type: cell-based; conditions: fungicide at a rate just below that giving any control; visual assessment of % control;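 further: scored as inactive or active or highly active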
Procedure: (§4) Method 2: In Vitro Assessment of Combination Activity
(§5) Selected compounds were assessed in combination with fungicides against a range of commercially important plant pathogenic fungi.
(§6) The test was conducted as follows. A fungicide was applied to a fungal plant pathogen at a rate slightly below that at which it gave any control, in combination with a suitable dose of the test compound. The test compound was recorded as active if control of the pathogen was observed.
(§7) In more detail, the test was conducted as follows. For each combination of fungicide, pathogen and test compound, the following wells were used. Well 1 contained a fungal pathogen growing on agar, and a fungicide at a rate just below that at which it gave any control of the pathogen. Well 2 was the same as Well 1, except that the test compound was also added at Rate 1. Well 3 was the same as Well 2, except that the test compound was added at Rate 2, where Rate 2 was higher than Rate 1. Finally, as a benchmark, Well 4 was the same as Well 1, except that it contained the fungicide at a higher rate, at which it gave partial control of the pathogen. Each of the Wells 1 to 4 were run in duplicate, giving a total of 8 wells for each combination of fungicide, pathogen and test compound. For each well, after a suitable period of incubation, a visual assessment of the % control of the pathogen by the fungicide was made.
(§8) The following fungicides were used in this assay: azoxystrobin, fluxapyroxad, and desthio prothioconazole. The following fungal pathogens were used in this assay. First, a strain of Zymoseptoria tritici with a reduced susceptibility to strobilurin fungicides; second a strain of Zymoseptoria tritici with a reduced susceptibility to SDHI fungicides (i.e., those that inhibit succinate dehydrogenase); and third, Microdochium nivale.

[6] = test system: Zymoseptoria tritici with a reduced susceptibility to strobilurin fungicides; test: as above; assay type: cell-based; conditions: fungicide at a rate just below that giving any control; visual assessment of % control;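 further: scored as inactive or active or highly active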
Procedure: as §4, §5, §6, §7, §8

Microdochium nivale = test: as above; assay type: cell-based; conditions: fungicide at a rate just below that giving any control; visual assessment of % control;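 further: scored as inactive or active or highly active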
Procedure: as §4, §5, §6, §7, §8

[7] = Balaya 0.0015 L/ha, compared to Balaya alone or with Roux Compound 15 at 30 ppm

Compound: C/C(=N\NC(=O)c1cccc(NS(C)(=O)=O)c1)c1ccc2ccccc2c1 [I-214, (E)-N-(3-(2-(1-(naphthalen-2-yl)ethylidene)hydrazine-1-carobnyl)phenyl)methanesulfonamide]
- control of Botrytis by Balaya in combination with test compound [1, 7]: notably superior control
- control of Botrytis by Imtrex in combination with test compound ([1]; Imtrex 0.005 L/ha, compared to Imtrex alone or with Roux Compound 15 at 30 ppm): notably superior control
- activity of Imtrex against Brown Rust with addition of test compound [2]: substantially enhanced
- control of Zymoseptoria tritici by Amistar in combination with test compound ([3]; Amistar 0.1 L/ha, compared to Amistar alone or with Roux Compound 15 at 30 ppm): notably superior control
- control of Zymoseptoria tritici by Balaya in combination with test compound [3, 7]: notably superior control
- control of Zymoseptoria tritici by Imtrex in combination with test compound ([3]; Imtrex 0.02 L/ha, similar to Imtrex with Roux Compound 15 at 15 and 30 ppm): superior control to Imtrex or Proline alone
- control of Zymoseptoria tritici by Proline in combination with test compound ([3]; Proline 0.0075 L/ha, compared to Proline alone and with Roux Compound 15): superior control to Imtrex or Proline alone
- activity of Amistar against Asian Soybean Rust with addition of test compound ([4]; Amistar 0.02 L/ha): substantially enhanced
- activity of Balaya against Asian Soybean Rust with addition of test compound ([4]; Balaya 0.03 L/ha): substantially enhanced
- activity of Proline against Asian Soybean Rust with addition of test compound ([4]; Proline 0.15 L/ha): substantially enhanced
- % Inhibition of Apyrase (apyrase): 55%
- activity in combination with desthio prothioconazole [5]: significant activity
- activity in combination with desthio prothioconazole [6]: significant activity
- activity in combination with fluxapyroxad (Microdochium nivale): significant activity
